US8916565B2, “Pyrrolopyrazine-spirocyclic piperidine amides as modulators of ion channels” (priority 2011, dated 2014)

Biological target: human NaV subtype, like NaV 1.7 (Homo sapiens, UniProt Q15858)
Assay: E-VIPR optical membrane potential assay with electrical stimulation
Assay type: cell-based
Details: active against one or more sodium channels; Table 3 does not name the assay or NaV subtype; read-out: Binned Activity Data (IC50)

Sequence of human NaV subtype, like NaV 1.7 (Q15858 whole entry): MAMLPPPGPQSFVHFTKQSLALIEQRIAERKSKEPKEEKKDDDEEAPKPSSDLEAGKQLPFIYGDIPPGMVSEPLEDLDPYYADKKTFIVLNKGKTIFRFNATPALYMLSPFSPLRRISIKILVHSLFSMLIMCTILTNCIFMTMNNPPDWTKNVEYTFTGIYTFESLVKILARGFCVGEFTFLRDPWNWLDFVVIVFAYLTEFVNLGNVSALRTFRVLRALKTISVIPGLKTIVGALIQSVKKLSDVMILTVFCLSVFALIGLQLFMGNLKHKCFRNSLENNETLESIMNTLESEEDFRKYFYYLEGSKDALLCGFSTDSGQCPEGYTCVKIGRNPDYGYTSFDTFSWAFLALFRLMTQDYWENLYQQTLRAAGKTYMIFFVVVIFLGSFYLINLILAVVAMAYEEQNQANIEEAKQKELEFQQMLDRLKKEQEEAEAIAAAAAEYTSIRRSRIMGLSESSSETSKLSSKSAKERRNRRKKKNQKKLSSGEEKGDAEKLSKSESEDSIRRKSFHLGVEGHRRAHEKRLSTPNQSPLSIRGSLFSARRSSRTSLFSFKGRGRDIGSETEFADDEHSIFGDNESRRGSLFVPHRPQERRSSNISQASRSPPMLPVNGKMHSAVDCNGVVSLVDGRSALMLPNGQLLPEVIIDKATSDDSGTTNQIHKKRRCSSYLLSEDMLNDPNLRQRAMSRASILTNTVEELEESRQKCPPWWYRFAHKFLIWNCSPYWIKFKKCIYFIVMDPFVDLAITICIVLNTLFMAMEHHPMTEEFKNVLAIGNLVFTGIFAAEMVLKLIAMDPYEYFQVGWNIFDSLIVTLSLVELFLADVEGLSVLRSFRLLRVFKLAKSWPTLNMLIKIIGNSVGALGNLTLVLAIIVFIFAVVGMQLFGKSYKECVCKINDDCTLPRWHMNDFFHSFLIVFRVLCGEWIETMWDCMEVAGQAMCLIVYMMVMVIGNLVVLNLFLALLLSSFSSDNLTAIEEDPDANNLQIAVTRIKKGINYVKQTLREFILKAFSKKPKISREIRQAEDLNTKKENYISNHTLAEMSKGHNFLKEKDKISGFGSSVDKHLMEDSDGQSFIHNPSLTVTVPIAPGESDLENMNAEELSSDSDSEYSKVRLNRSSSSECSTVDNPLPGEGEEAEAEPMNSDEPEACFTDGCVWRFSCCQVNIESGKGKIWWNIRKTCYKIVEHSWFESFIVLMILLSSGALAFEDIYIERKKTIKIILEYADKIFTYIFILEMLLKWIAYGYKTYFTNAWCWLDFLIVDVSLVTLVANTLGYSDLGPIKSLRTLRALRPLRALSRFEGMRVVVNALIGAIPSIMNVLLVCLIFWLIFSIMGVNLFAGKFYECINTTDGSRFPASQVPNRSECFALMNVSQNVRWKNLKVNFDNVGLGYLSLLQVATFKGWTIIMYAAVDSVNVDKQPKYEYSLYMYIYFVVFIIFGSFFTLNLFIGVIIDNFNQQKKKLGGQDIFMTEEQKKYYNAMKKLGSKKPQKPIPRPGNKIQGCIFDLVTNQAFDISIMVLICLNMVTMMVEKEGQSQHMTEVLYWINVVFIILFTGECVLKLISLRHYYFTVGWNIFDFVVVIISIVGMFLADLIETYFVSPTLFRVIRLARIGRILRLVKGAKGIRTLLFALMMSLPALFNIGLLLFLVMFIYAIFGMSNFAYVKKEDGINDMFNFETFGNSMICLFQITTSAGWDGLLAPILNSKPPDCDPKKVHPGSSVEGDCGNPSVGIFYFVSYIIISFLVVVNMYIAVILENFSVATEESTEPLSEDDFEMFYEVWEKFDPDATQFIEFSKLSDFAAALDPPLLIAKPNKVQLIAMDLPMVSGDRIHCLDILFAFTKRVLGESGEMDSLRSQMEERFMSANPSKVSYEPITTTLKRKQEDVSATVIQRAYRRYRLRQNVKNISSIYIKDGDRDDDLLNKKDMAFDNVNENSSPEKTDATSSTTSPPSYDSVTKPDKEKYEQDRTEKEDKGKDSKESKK

Compound	IC50 [nM]
CCNc1ccnc2c(C(=O)N3CCC4(CC3)c3ccc(C(F)(F)F)n3CCN4C)cnn12 [Compound 481]	≤ 2000
CCC(CC)(CC)c1ccc(C(=O)N2CCC3(CC2)c2ccc(C(C)=O)n2CCN3C)cc1 [Compound 511]	> 5000
C[C@H]1Cn2c(C(=O)C(F)(F)F)ccc2C2(CCN(C(=O)c3ccc(S(=O)(=O)NC4CC4)cc3)CC2)N1C [Compound 669]	≤ 2000
COc1cc(C(=O)N2CCC3(CC2)c2ccc(C(=O)C(F)(F)F)n2C(C)CN3C)ccc1OCCOC(F)(F)F (centres unmarked) [Compound 114]	≤ 2000
CC(C)C(=O)c1ccc2n1CCN(C)C21CCN(C(=O)c2ccc(COCCC(F)(F)F)cc2)CC1 [Compound 359]	≤ 2000
COc1ccc(C(=O)N2CCC3(CC2)c2ccc(C(=O)C(F)(F)F)n2CCN3C)cc1-c1ccccc1 [Compound 130]	2000 to 5000
CN1CCn2c(C(=O)C3CC3)ccc2C12CCN(C(=O)c1ccc(COCCC(F)(F)F)cc1)CC2 [Compound 627]	≤ 2000
CCCCOc1cc(C(=O)N2CCC3(CC2)c2ccc(Cl)n2CCN3C)ccc1OC [Compound 539]	> 5000
CN1CCn2c(ccc2S(C)(=O)=O)C12CCN(C(=O)c1ccc(C3CCCCC3)cc1)CC2 [Compound 302]	2000 to 5000
Cc1cc(C(=O)N2CCC3(CC2)NC(C)Cn2c(C(F)(F)F)ccc23)ccc1OC(C)C (centres unmarked) [Compound 222]	≤ 2000
CCOc1cc(C(=O)N2CCC3(CC2)NCCn2c(C(F)(F)F)ccc23)ccc1OC [Compound 618]	> 5000
CCCOc1ccc(C(=O)N2CCC3(CC2)NCCn2c(C(F)(F)F)ccc23)cc1OC [Compound 550]	≤ 2000
COc1cc(C(=O)N2CCC3(CC2)c2ccc(C(=O)C(C)(C)C)n2CCN3C)ccc1OC(C)(C)C [Compound 85]	≤ 2000
CN1CCn2c(Cl)ccc2C12CCN(C(=O)c1ccc(OCC(C)(C)C)cc1)CC2 [Compound 32]	≤ 2000
CCN(CC)c1ncccc1C(=O)N1CCC2(CC1)c1ccc(C(F)(F)F)n1CCN2C [Compound 684]	> 5000
CC(C)Oc1ccc(C(=O)N2CCC3(CC2)NC(C)(C)Cn2c(C(=O)C(F)(F)F)ccc23)cc1F [Compound 232]	≤ 2000
CN1CCn2c(C(=O)C(F)(F)F)ccc2C12CCN(C(=O)c1ccc(COCC(F)(F)F)cc1)CC2 [Compound 553]	≤ 2000
CCCOc1ccc(C(=O)N2CCC3(CC2)c2ccc(C(=O)C(F)(F)F)n2CCN3C)cc1 [Compound 127]	≤ 2000
Cc1cc(C(=O)N2CCC3(CC2)NC(C)(C)Cn2c(C(F)(F)F)ccc23)ccc1OC(C)C [Compound 598]	≤ 2000
COc1cc(C(=O)N2CCC3(CC2)N[C@H]2CCCC[C@H]2n2cccc23)ccc1C(C)(C)C [Compound 110]	≤ 2000
CN1CCn2c(C(=O)C(F)(F)F)ccc2C12CCN(C(=O)c1ccc(-c3ccccc3F)cn1)CC2 [Compound 725]	> 5000

Compound	IC50 [nM]
CCCCc1ccc(C(=O)N2CCC3(CC2)c2ccc(C(=O)C(F)(F)F)n2CCN3C)cc1 [Compound 740]	≤ 2000
Cc1cc(C(=O)N2CCC3(CC2)NC(C)(C)Cn2c(C(=O)C(F)(F)F)ccc23)ccc1O [Compound 318]	≤ 2000
Cc1nc(C(=O)N2CCC3(CC2)NC(C)(C)Cn2c(C(=O)C(F)(F)F)ccc23)ccc1OC(C)C [Compound 433]	≤ 2000
COc1cc(C(=O)N2CCC3(CC2)NCC(C)(C)n2c(C(F)(F)F)ccc23)ccc1OC(C)C [Compound 405]	≤ 2000
COc1cc(C(=O)N2CCC3(CC2)NCCn2c(C(F)(F)F)ccc23)ccc1C(C)(C)O [Compound 83]	≤ 2000
CCOC(=O)N1CCn2c(C#N)ccc2C12CCN(C(=O)c1ccc(OC(C)C)c(C)n1)CC2 [Compound 729]	≤ 2000
COc1ccc(C(=O)N2CCC3(CC2)c2ccc(C(=O)C(F)(F)F)n2C(C)(C)CN3C)cc1C [Compound 223]	2000 to 5000
CC(C)Oc1ccc(C(=O)N2CCC3(CC2)c2ccc(C(=O)C4CC4)n2CCN3C)c(F)c1 [Compound 124]	≤ 2000
COc1ccc(C(=O)N2CCC3(CC2)c2ccc(C(=O)C(F)(F)F)n2C[C@H](C)N3C)cc1C(F)(F)F [Compound 726]	≤ 2000
CC(=O)c1ccc2n1CCN(C)C21CCN(C(=O)c2ccc(COc3ccccc3)cc2)CC1 [Compound 665]	≤ 2000
CC(C)Oc1ccc(C(=O)N2CCC3(CC2)NCCn2c(C(F)(F)F)ccc23)cc1CO [Compound 549]	≤ 2000
COc1ccc(C(=O)N2CCC3(CC2)NCCn2c(C(F)(F)F)ccc23)cc1 [Compound 497]	> 5000
Cc1nc(C(=O)N2CCC3(CC2)c2ccc(C(=O)C(F)(F)F)n2C(C)CN3C)ccc1OC(C)C (centres unmarked) [Compound 556]	≤ 2000
COc1cc(C(=O)N2CCC3(CC2)c2ccc(C(C)=O)n2CCN3C)ccc1OCC(C)C [Compound 230]	≤ 2000
CCC(c1ccc(F)cc1)n1cc(C(=O)N2CCC3(CC2)c2ccc(C(F)(F)F)n2CCN3C)nn1 (centres unmarked) [Compound 293]	> 5000
Cc1cc(C(=O)N2CCC3(CC2)c2ccc(C(=O)c4ccccc4)n2CCN3C)ccc1O [Compound 632]	≤ 2000
Cc1cc(C(=O)N2CCC3(CC2)NCC(C)n2c(C(=O)C(F)(F)F)ccc23)ccc1C(C)(C)O (centres unmarked) [Compound 235]	≤ 2000
COc1cc(C(=O)N2CCC3(c4ccc(C(F)(F)F)n4CCN3C)C(C)C2)ccc1OC(C)C (centres unmarked) [Compound 545]	2000 to 5000
CC[C@H](C)Oc1ccc(C(=O)N2CCC3(CC2)NCCn2c(C(F)(F)F)ccc23)cc1OC [Compound 522]	≤ 2000
CN1CCn2c(C(F)(F)F)ccc2C12CCN(C(=O)c1ccccc1OC(F)(F)F)CC2 [Compound 272]	2000 to 5000

The next lines start with the values.

IC50 [nM]	Compound
2000 to 5000	CN1CCn2c(C(F)(F)F)ccc2C12CCN(C(=O)c1cccnc1N1CCC(F)(F)C1)CC2 [Compound 392]
≤ 2000	CCC(=O)c1ccc2n1CCN(C)C21CCN(C(=O)c2ccc(C(C)(C)O)c(C)c2)CC1 [Compound 591]
≤ 2000	CNS(=O)(=O)c1ccc(C(=O)N2CCC3(CC2)c2ccc(C(F)(F)F)n2CCN3C)cc1 [Compound 716]
> 5000	CN1CCn2c(C(F)(F)F)ccc2C12CCN(C(=O)c1cccc(Cl)c1)CC2 [Compound 166]
> 5000	CN(C)c1ncccc1C(=O)N1CCC2(CC1)c1ccc(C(F)(F)F)n1CCN2C [Compound 652]
≤ 2000	CN1CCn2c(C(F)(F)F)ccc2C12CCN(C(=O)c1ccc(S(=O)(=O)N3CCCC3)cc1)CC2 [Compound 123]
≤ 2000	CCC(=O)c1ccc2n1CCN(C)C21CCN(C(=O)c2ccc(OC(C)C)c(C)c2)CC1 [Compound 704]
≤ 2000	Cc1cc(C(=O)N2CCC3(CC2)c2ccc(C(=O)C(F)(F)F)n2CCN3C)ccc1-c1ccccc1 [Compound 55]
≤ 2000	COc1cc(C(=O)N2CCC3(CC2)c2ccc(C(=O)C(F)(F)F)n2CCN3C)ccc1OC(C)(C)C [Compound 90]
≤ 2000	Cc1cc(C(=O)N2CCC3(CC2)c2c(F)cc(C(F)(F)F)n2CCN3C)ccc1C(C)(C)O [Compound 262]
≤ 2000	Cc1cc(C(=O)N2CCC3(CC2)c2ccc(C(F)(F)F)n2CCN3C)ccc1S(=O)(=O)C(C)C [Compound 2]
≤ 2000	Cc1cc(C(=O)N2CC[C@@]3(c4ccc(C(F)(F)F)n4CCN3C)[C@H](F)C2)ccc1OC(C)C [Compound 642]
> 5000	Cc1cc(C(=O)N2CCC3(CC2)c2ccc(C(F)(F)F)n2CCN3C)ccc1F [Compound 177]
≤ 2000	CN1CCn2c(C(=O)C3(C)CC3)ccc2C12CCN(C(=O)c1ccc(O)c(C(F)(F)F)c1)CC2 [Compound 685]
> 5000	CC(C)Oc1ccc(C(=O)N2CCC3(CC2)c2cc(C(=O)C(F)(F)F)cn2C(C)(C)CN3C)cc1F [Compound 391]
≤ 2000	CN1CCn2c(C(=O)C(C)(C)C)ccc2C12CCN(C(=O)c1ccc(O)c(C(F)(F)F)c1)CC2 [Compound 97]
≤ 2000	COCCN1CCn2c(C(F)(F)F)ccc2C12CCN(C(=O)c1ccc(OC(C)C)c(CO)c1)CC2 [Compound 336]

IC50 [nM]	Compound
> 5000	COc1cc(C(=O)N2CCC3(CC2)c2ccc(C(F)(F)F)n2CCN3C=O)ccc1OC(C)C [Compound 362]
≤ 2000	CC[C@@H](C)Oc1ccc(C(=O)N2CCC3(CC2)c2ccc(C(F)(F)C(F)(F)F)n2CCN3C)cc1OC [Compound 412]
≤ 2000	COc1cc(C(=O)N2CCC3(CC2)c2ccc(C(=O)C(F)(F)F)n2CCN3C)ccc1OCC(C)C [Compound 516]
≤ 2000	Cc1cc(C(=O)N2CCC3(CC2)c2ccc(C(=O)C(F)(F)F)n2C[C@H](C)N3C)ccc1O [Compound 207]
≤ 2000	CC(C)Oc1ccc(C(=O)N2CCC3(CC2)c2c(F)cc(C(F)(F)F)n2CCN3C)cc1F [Compound 436]
> 5000	COCC#Cc1ccc(C(=O)N2CCC3(CC2)c2ccc(C(C)=O)n2CCN3C)cc1F [Compound 615]
≤ 2000	CCCOc1cc(C(=O)N2CCC3(CC2)c2ccc(C(=O)C(F)(F)F)n2CCN3C)ccc1OC [Compound 142]
≤ 2000	Cc1cc(C(=O)N2CCC3(CC2)c2c(F)cc(C(F)(F)F)n2CCN3C)ccc1C1(O)CCC1 [Compound 384]
> 5000	CC(=O)c1ccc2n1CCN(C)C21CCN(C(=O)c2ccc(C(C)(C)O)c(F)c2)CC1 [Compound 703]
≤ 2000	CN1CCn2c(C(=O)C(F)(F)F)ccc2C12CCN(C(=O)c1ccc(N3CCCCC3)cc1)CC2 [Compound 582]
> 5000	Cc1ccc(C(=O)N2CCC3(CC2)c2ccc(C(=O)C(F)(F)F)n2CCN3C)cc1O [Compound 597]
≤ 2000	CN1CCn2c(C(F)(F)F)ccc2C12CCN(C(=O)c1cc3occc3n1C)CC2 [Compound 365]
≤ 2000	Cc1cc(C(=O)N2CCC3(CC2)c2ccc(C(F)(F)F)n2CCN3C)ccc1OCCO [Compound 335]
≤ 2000	CC[C@H](C)Oc1ccc(C(=O)N2CCC3(CC2)c2ccc(C(F)(F)F)n2CCN3C)cc1OC [Compound 525]
≤ 2000	COc1cc(C(=O)N2CCC3(CC2)c2ccc(C(F)(F)C(F)(F)F)n2CCN3C)ccc1OC(C)(C)C [Compound 299]
≤ 2000	CN1CCn2c(ccc2C(F)(F)C(F)(F)F)C12CCN(C(=O)c1ccc(CC(C)(C)O)c(F)c1)CC2 [Compound 226]
